Data taken from ChEMBL document CHEMBL1149926, “Synthesis of 7-substituted androstenediones by a 1,4-conjugate addition approach” (Bioorg Med Chem Lett, 1995).

biological target: T1, Aromatase (Homo sapiens, UniProt P11511); assay: Inhibition of aromatase cytochrome P450 19A1
T1 sequence (P11511 whole entry): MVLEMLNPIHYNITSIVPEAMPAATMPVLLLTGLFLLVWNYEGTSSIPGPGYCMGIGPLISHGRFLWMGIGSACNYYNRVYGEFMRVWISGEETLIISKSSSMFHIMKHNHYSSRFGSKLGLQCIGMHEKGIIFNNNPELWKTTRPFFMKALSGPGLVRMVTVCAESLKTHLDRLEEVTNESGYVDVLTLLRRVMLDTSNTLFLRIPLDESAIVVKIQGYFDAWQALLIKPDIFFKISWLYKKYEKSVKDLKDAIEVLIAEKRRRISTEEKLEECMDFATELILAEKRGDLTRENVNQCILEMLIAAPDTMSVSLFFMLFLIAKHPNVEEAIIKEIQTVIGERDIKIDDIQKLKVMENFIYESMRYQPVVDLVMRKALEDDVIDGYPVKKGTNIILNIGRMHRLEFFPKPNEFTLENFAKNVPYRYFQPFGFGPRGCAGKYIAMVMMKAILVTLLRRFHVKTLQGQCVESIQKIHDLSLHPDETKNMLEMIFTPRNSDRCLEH

| Compound | Ki [nM] |
| --- | --- |
| C[C@]12C=CC(=O)C=C1C[C@@H](Sc1ccc(N)cc1)[C@@H]1[C@@H]2CC[C@]2(C)C(=O)CC[C@@H]12 | 10 |
| C[C@]12CCC(=O)C=C1C[C@@H](CCc1ccccc1)[C@@H]1[C@@H]2CC[C@]2(C)C(=O)CC[C@@H]12 | 16.5 |
| C[C@]12CCC(=O)C=C1C[C@@H](Cc1ccccc1)[C@@H]1[C@@H]2CC[C@]2(C)C(=O)CC[C@@H]12 | 13.1 |
